Data on five compounds can be found in patent publication US6699850B2, “Compositions and methods for inhibiting bone resorption” (Merck & Co., Inc., priority 1998, dated 2004).

The subject of assay [1] is 34 kDa Mst Kinase fragment. Description: In-gel kinase assay of Mst kinase activities in cultured osteoclast-like cells. The assay is classed as cell-based, Murine. Conditions: for activation of the 34 kDa Mst Kinase fragment: osteoclast like cells; for blocking of activation of Mst1 cleavage by alendronate monosodium trihydrate: FIG. 5 lanes 3 and 4, 10 μM isoprenoid with 30 μM alendronate monosodium trihydrate. On the procedure:
(§1) Murine co-cultures of osteoblasts and marrow cells are prepared using the methods of Wesolowski, et al., Exp Cell Res, (1995), 219, pp. 679-686, which is incorporated by reference herein in its entirety. Bone marrow cells are harvested from 6-week-old male Balb/C mice by flushing marrow spaces of freshly isolated long bones (tibiae and femora) with α-MEM (minimal essential media) containing penicillin/streptomycin (100 I.U./ml of each and 20 mM Hepes buffer). The bone marrow cells are suspended in α-MEM and the cells are filtered through an approximately 70 μm cell strainer. The filtrate is centrifuged at about 300×g for about 7 minutes. The resulting pellet is resuspended in α-MEM supplemented with fetal calf serum (10% v/v) and 10 nM 1, 25-(OH)2 vitamin D3. These bone marrow isolates are added to sub-confluent monolayers of osteoblastic MB 1.8 cells in cell culture plates and cultured for 7 days at 37 °C. in the presence of 5% CO2. Culture media is replenished ever other day. Fusion of the osteoclast precursor cells from bone marrow (with each other) to form multinucleated osteoclast-like cells typically occurs after about 7 days. Osteoclast-like cells are enriched by sequential treatment with collagenase (1 mg/mL in phosphate buffered saline) for one hour at 37° C. and EDTA (0.2 g/L in phosphate buffered saline) for 20 min at 37° C. Non-adherent cells are rinsed away by washing with phosphate buffered saline. Osteoclast-like cells which are resistant to the sequential treatments are present at about 95% purity and are maintained in α-MEM supplemented with fetal calf serum (10% v/v), 10 nM 1,25-(OH)2 vitamin D3, macrophage-colony-stimulating factor (5 ng/mL).
The compounds to be evaluated are prepared as a solution of the desired concentration in α-MEM. Examples of compounds that can be evaluated include nitrogen-containing bisphosphonates such as alendronate monosodium trihydrate, as well as compounds that block the effects of these inhibitors, such as isoprenoid compounds, for example, geranylgeraniol, geranylgeranyl phosphate, geranylgeranyl pyrophosphate, geranylgeranyl acetate, geranylgeranyl propionate, geranylgeranyl benzoate, geranylgeranyl lactate, geranylgeranyl succinate, and geranylgeranyl glutarate. Combinations of compounds can also be evaluated. The solutions of the compounds to be evaluated are added to the cultures for a time period of 17-24 hours. No treatment controls (controls not treated with compounds) are prepared by adding equivalent volumes of α-MEM to the control dishes.
Cells are then harvested and Iysed in a HEPES (N-(2-hydroxyethyl)piperazine-N′-(2-ethansulfonic acid) or Tris buffer containing the following: β-glycerophosphate (50 mM); Na3VO4 (1 mM); NaF (1 mM); Microcystin LR (1 μM); leupeptin (10 μg/ml); aprotinin (10 μg/ml); phenylmethyl sulfonylfluoride (1 mM). Protein concentrations are determined for each lysate and 5-20 μg are loaded into each lane of a SDS-PAGE (sodium dodecyl sulfate-polyacrylamide gel electrophoresis) gel containing Myelin Basic Protein, or another kinase substrate, which has been polymerized into the gel at a concentration between 50-400 μg/ml. Molecular weight standards are also loaded into one or more lanes of the gels. In-gel kinase assays are run according to a standard procedure based on Kameshita and Fujisawa, 1989 (Anal. Biochem. 183:139-143) and of Gotoh et al., 1990 (Eur. J. Biochem. 193: 661-669), both references being incorporated by reference herein in their entirety. The proteins are electrophoresed in the above gels. The gels are then successively soaked in 50 mM HEPES, pH 7.6; 5 mM 2-mercaptoethanol and each of the following (for each wash): (a) 20% isopropanol; (b) no additions; (c) urea (6 M); (d) Urea (3 M); (e) Urea (0.75 M); and Tween 20 (0.05% vol:vol). Kinase reactions are then run by first soaking the gels in 20 mM HEPES, pH 7.6; 20 mM MgCl2; 2 mM DTT and then in the same buffer containing 0.02 M ATP (non-radioactive) with ca. 1000 cpm/pmol ^32P-γ-ATP. […]

For the next assay, the system named is osteoclast function. Description: Osteoclast cell cultures and bone resorption assays. Type of assay: cell-based. Conditions: with a bisphosphonate such as alendronate monosodium trihydrate; no concentration stated. Here is the method: The compounds are dosed both 5 and 6 days after establishing the culture, and the formation of 250 μm cells are counted using an inverted microscope with a 10×objective and quantitated versus a no treatment control.
as §1, with “Osteoclast-like cells are enriched by sequential treatment with collagenase (1 mg/mL in phosphate buffered saline) for one hour at 37° C. and EDTA (0.2 g/L in phosphate buffered saline) for 20 min at 37° C. Non-adherent cells are rinsed away by washing with phosphate buffered saline. Osteoclast-like cells which are resistant to the sequential treatments are present at about 95% purity and are maintained in α-MEM supplemented with fetal calf serum (10% v/v), 10 nM 1,25-(OH)2 vitamin D3, macrophage-colony-stimulating factor (5 ng/mL).” left out

Regarding `NCCCC(O)(P(=O)(O)O)P(=O)(O)O` [alendronate monosodium trihydrate, 4-amino-1-hydroxybutylidene-1,1-bisphosphonic acid monosodium trihydrate], the “activation of 34 kDa Mst Kinase fragment immunoprecipitated by anti-Mst and anti-Krs antibody cocktail” value in assay [1] (FIG. 1 lane 3, 30 μM, osteoclast-like cells, in-gel kinase assay after immunoprecipitation) is on record as “activated”. In addition, the “activation of the 34 kDa Mst Kinase fragment” value in assay [1] (FIG. 2, 30 μM, about 17 hours) is reported as “activation”; in assay [1] (FIG. 2, 100 μM, about 17 hours), “activation”; in assay [1] (FIG. 4 lane 2, 30 μM) it was “activation”. Also, the “activation of Mst1 cleavage” value in assay [1] (FIG. 5 lane 2, 30 μM, myelin basic protein as substrate) is “activation of Mst1 cleavage”.
As to `CC(O)(P(=O)(O)O)P(=O)(O)O` [etidronate disodium], the “activation of the 34 kDa Mst Kinase fragment” value was “fail to activate” in assay [1] (FIG. 2, 30 μM, about 17 hours) and “fail to activate” in assay [1] (FIG. 2, 100 μM, about 17 hours).
Regarding `CC(C)=CCCC(C)=CCCC(C)=CCO` [farnesol], the “blocking of activation of Mst1 cleavage by alendronate monosodium trihydrate” value in assay [1] is on record as “partially blocked”.
Turning to `CC(C)=CCC/C(C)=C/CC/C(C)=C/CC/C(C)=C/CO` [geranylgeraniol], the “effect on bisphosphonate-induced inhibition of osteoclast function” value in the assay with osteoclast function was “block the inhibitory effect”. Further, the “effect on activation of the 34 kDa Mst Kinase fragment by alendronate monosodium trihydrate” value in assay [1] (FIG. 4 lane 3, 10 μM geranylgeraniol with 30 μM alendronate monosodium trihydrate) is “negates this activation”. In assay [1], the “blocking of activation of Mst1 cleavage by alendronate monosodium trihydrate” value is recorded as “blocked”. The “effect on cleavage of Mst induced by bisphosphonates such as alendronate monosodium trihydrate” value in assay [1] (osteoclasts, no concentration stated) is given as “prevent the cleavage of Mst”.
As for `O=P(O)(O)C(Sc1ccc(Cl)cc1)P(=O)(O)O` [tiludronate disodium], the “activation of the 34 kDa Mst Kinase fragment” value is “fail to activate” in assay [1] (FIG. 2, 30 μM, about 17 hours) and “fail to activate” in assay [1] (FIG. 2, 100 μM, about 17 hours).
